The values below come from patent US5767291A, “Phenyl heterocycles as cox-2 inhibitors” (Merck Frosst Canada, Inc., priority 1996, dated 1998).

Where two headings read alike, the source gives them in different places.

Data set [1] addresses T1, cyclooxygenase-1 (COX-1) (Homo sapiens, UniProt P23219).
T1 construct: human U-937 cells (which specifically express cyclooxygenase-1); endogenous in cells; host or cells: human U-937 cells (whole cells, and microsomes prepared from them)
Briefly: Microsomal cyclooxygenase assay, COX-1 (PGE2 synthesis, microsomes of human U-937 cells). It counts as biochemical. The note with it: for inhibition at 0.1 µM: 100 nM. As for the experimental part: (§1) Compounds were tested as inhibitors of cyclooxygenase activity in whole cell and microsomal cyclooxygenase assays. Both of these assays measured prostaglandin E2 (PGE2) synthesis in response to arachidonic acid, using a radioimmunoassay. Cells used for whole cell assays, and from which microsomes were prepared for microsomal assays, were human osteosarcoma 143 cells (which specifically express cyclooxygenase-2) and human U-937 cells (which specifically express cyclooxygenase-1). In these assays, 100% activity is defined as the difference between prostaglandin E2 synthesis in the absence and presence of arachidonate addition.

The target in data set [2] is T2, cyclooxygenase-2 (COX-2) (Homo sapiens, UniProt P35354).
T2 construct: human osteosarcoma 143 cells (which specifically express cyclooxygenase-2); endogenous in cells; host or cells: human osteosarcoma 143 cells (whole cells, and microsomes prepared from them)
T2 sequence (P35354 18-604): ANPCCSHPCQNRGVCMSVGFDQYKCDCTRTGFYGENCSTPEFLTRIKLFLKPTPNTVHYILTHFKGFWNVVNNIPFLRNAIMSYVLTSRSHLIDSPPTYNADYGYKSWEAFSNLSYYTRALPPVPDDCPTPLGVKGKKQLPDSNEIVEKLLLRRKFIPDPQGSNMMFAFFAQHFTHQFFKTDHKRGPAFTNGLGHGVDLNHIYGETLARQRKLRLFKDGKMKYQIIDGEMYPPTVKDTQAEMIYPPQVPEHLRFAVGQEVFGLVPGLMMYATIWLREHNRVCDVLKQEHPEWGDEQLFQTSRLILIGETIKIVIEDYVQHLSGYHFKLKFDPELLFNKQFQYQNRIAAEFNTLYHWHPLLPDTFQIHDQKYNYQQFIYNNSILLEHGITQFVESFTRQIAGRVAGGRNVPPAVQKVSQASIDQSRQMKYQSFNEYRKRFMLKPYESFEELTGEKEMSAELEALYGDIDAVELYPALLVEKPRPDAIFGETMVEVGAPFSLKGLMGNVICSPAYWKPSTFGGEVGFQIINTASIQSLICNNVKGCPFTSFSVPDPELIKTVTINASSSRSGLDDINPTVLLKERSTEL
Briefly: Microsomal cyclooxygenase assay, COX-2 (PGE2 synthesis, microsomes of human osteosarcoma 143 cells). It counts as biochemical. The note with it: for inhibition at 0.1 µM: 100 nM. How it is done: as §1

Data set [3] has as its target T1, cyclooxygenase-1 (COX-1). Description: Whole cell cyclooxygenase assay, COX-1 (PGE2 synthesis in response to arachidonic acid, radioimmunoassay), human U-937 cells. It counts as cell-based. The note with it: read-out: Whole Cells COX-1 % inhib. How it is done: as §1
Data set [4] concerns the target T2, cyclooxygenase-2 (COX-2). Briefly: Whole cell cyclooxygenase assay, COX-2 (PGE2 synthesis in response to arachidonic acid, radioimmunoassay), human osteosarcoma 143 cells. Type of data set: cell-based. The note with it: read-out: Whole Cells COX-2 % inhib.; for inhibition at 0.01 µM: 10 nM; for inhibition at 0.04 µM: 40 nM; for inhibition at 0.08 µM: 80 nM. How it is done: as §1

[5] abbreviates: 10 nM, read-out: Microsomes COX-1 % inhib.
[6] abbreviates: 10 nM, read-out: Microsomes COX-2 % inhib.
The mark [7] stands for this setting: read-out: Microsomes COX-1 % inhib.
Where [8] appears, read: read-out: Microsomes COX-2 % inhib.

T1 sequence (P23219 24-599): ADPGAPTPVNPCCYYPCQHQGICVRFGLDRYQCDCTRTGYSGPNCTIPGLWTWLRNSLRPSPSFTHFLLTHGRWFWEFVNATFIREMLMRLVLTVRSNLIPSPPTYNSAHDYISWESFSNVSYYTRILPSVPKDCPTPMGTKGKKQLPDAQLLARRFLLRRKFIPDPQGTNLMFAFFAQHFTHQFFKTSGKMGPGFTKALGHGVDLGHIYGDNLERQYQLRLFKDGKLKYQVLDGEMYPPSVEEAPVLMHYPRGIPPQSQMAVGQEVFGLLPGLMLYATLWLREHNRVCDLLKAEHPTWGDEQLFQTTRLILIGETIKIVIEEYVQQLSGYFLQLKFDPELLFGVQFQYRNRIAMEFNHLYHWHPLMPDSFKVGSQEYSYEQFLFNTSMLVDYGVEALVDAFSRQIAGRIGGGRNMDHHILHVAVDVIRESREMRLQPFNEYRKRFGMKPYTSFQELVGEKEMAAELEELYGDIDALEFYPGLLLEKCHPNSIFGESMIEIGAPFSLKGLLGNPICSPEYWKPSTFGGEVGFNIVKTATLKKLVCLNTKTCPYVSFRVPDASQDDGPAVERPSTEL

For `NS(=O)(=O)c1ccc(-c2ccsc2C2CCCCC2)cc1` [Example 4, 3-(4-(Aminosulfonyl)phenyl)-2-cyclohexylthiophene], the inhibition at 0.01 µM on cyclooxygenase-1 (COX-1) [1] (setting [5]) was 2%; at cyclooxygenase-2 (COX-2) [2] (setting [6]), 47%.
Take `NS(=O)(=O)c1ccc(-c2ccsc2-c2ccc(F)cc2)cc1` [Example 2, 3-(4-(Aminosulfonyl)phenyl)-2-(4-fluorophenyl)thiophene]: the inhibition at 0.01 µM on cyclooxygenase-1 (COX-1) [1] (setting [5]) turned out to be 25%; at cyclooxygenase-1 (COX-1) [3] (10 nM), 0%; at cyclooxygenase-2 (COX-2) [4], 69%; at cyclooxygenase-2 (COX-2) [2] (setting [6]), 49%.
As for `NS(=O)(=O)c1ccc(-c2sccc2-c2ccc(F)cc2)cc1` [Example 13, 2-((4-aminosulfonyl)phenyl)-3-(4-fluorophenyl)thiophene], at cyclooxygenase-1 (COX-1) [1] (10 nM, 0.01 µM), the “Microsomes COX-1 % inhib.” value amounted to 10%. The figures for the inhibition at 0.01 µM at cyclooxygenase-1 (COX-1) [1] (setting [5]), on cyclooxygenase-2 (COX-2) [4] and on cyclooxygenase-2 (COX-2) [2] (setting [6]) were 7%, 41% and 52%, respectively. The inhibition at 0.1 µM on cyclooxygenase-2 (COX-2) [4] (100 nM) was 84%. Further, the “Microsomes COX-2 % inhib.” value on cyclooxygenase-2 (COX-2) [2] (10 nM, 0.01 µM) is on record as 58%.
Regarding `Cc1nc(-c2ccc(F)cc2)c(-c2ccc(S(C)(=O)=O)cc2)s1` [Example 6, 4-(4-Fluorophenyl)-2-methyl-5-(4-(methylsulfonyl)phenyl)thiazole], the inhibition at 0.1 µM on cyclooxygenase-1 (COX-1) [1] (setting [7]) worked out at 16%; on cyclooxygenase-2 (COX-2) [4] (100 nM) it was 78%; on cyclooxygenase-2 (COX-2) [2] (setting [8]) it was 19%.
For the compound `CC(C)(O)c1cc(-c2ccc(S(N)(=O)=O)cc2)c(-c2ccc(F)cc2)s1` [Example 1], the inhibition at 0.1 µM came out at 8% on cyclooxygenase-1 (COX-1) [1] (setting [7]), 12% at cyclooxygenase-1 (COX-1) [3] (100 nM), 96% at cyclooxygenase-2 (COX-2) [4] (100 nM) and 53% on cyclooxygenase-2 (COX-2) [2] (setting [8]).
For the compound `CS(=O)(=O)c1ccc(-c2cocc2-c2ccc(F)cc2)cc1` [Example 11, 3-(4-Fluorophenyl)-4-(4-(methylsulfonyl)phenyl)furan], the inhibition at 0.1 µM at cyclooxygenase-1 (COX-1) [1] (setting [7]) is 7%; at cyclooxygenase-2 (COX-2) [4] (100 nM), 39%; on cyclooxygenase-2 (COX-2) [2] (setting [8]), 46%.
Take `CS(=O)(=O)c1ccc(C2=C(c3ccc(Br)cc3)C(=O)OC2)cc1` [Example 20, 3-(4-Bromophenyl)-4-(4-(methylsulfonyl)phenyl)-2-(5H)-furanone]: at cyclooxygenase-2 (COX-2) [4], the inhibition at 0.01 µM is 70% and the inhibition at 0.04 µM turned out to be 91%.
Take `NS(=O)(=O)c1ccc(C2=C(c3ccc(F)c(F)c3)C(=O)OC2)cc1` [Example 52, 3-(3,4-Difluorophenyl)-4-(4-(aminosulfonyl)phenyl)-2-(2H)-furanone]: at cyclooxygenase-2 (COX-2) [4], the inhibition at 0.01 µM is 50% and the inhibition at 0.04 µM was 82%. Further, at cyclooxygenase-2 (COX-2) [4] (160 nM), the inhibition at 0.16 µM was determined as 102%.
Consider `COc1ccc(C2=C(c3ccc(S(N)(=O)=O)cc3)COC2=O)cc1Br` [Example 54, 3-(3-Bromo-4-methoxyphenyl)-4-(4-(aminosulfonyl)phenyl)-2-(2H)-furanone], for which, at cyclooxygenase-2 (COX-2) [4], the inhibition at 0.01 µM worked out at 81% and the inhibition at 0.08 µM was determined as 91%. At cyclooxygenase-2 (COX-2) [4] (160 nM), the inhibition at 0.16 µM stood at 99%.
`COc1ccc(C2=C(c3ccc(S(C)(=O)=O)cc3)COC2=O)cc1Br` [Example 38, 3-(3-Bromo-4-methoxyphenyl)-4-(4-(methylsulfonyl)phenyl)-2-(5H)-furanone]: at cyclooxygenase-2 (COX-2) [4], the inhibition at 0.01 µM worked out at 25% and the inhibition at 0.04 µM was found to be 63%. Also, at cyclooxygenase-2 (COX-2) [4] (160 nM), the inhibition at 0.16 µM came to 88%.
Consider `CS(=O)(=O)c1ccc(C2=C(c3ccc(F)cc3)C(=O)OC2)cc1` [Example 9, 3-(4-Fluorophenyl)-4-(4-(methylsulfonyl)phenyl)-2-(5H)-furanone], for which the figures for the inhibition at 0.1 µM on cyclooxygenase-2 (COX-2) [4] and at cyclooxygenase-2 (COX-2) [2] (setting [8]) were 83% and 37%, respectively.
Consider `CS(=O)(=O)c1ccc(C2=C(c3ccc(C(F)(F)F)cc3)C(=O)OC2)cc1` [Example 35, 3-(4-Trifluoromethylphenyl)-4-(4-(methylsulfonyl)phenyl)-2-(5H)-furanone], for which, on cyclooxygenase-2 (COX-2) [4] (20 nM), the inhibition at 0.02 µM was 32%. At cyclooxygenase-2 (COX-2) [4], the inhibition at 0.04 µM came to 57%. The inhibition at 0.16 µM at cyclooxygenase-2 (COX-2) [4] (160 nM) is 83%.
As for `CC(C)c1cc(-c2ccc(S(N)(=O)=O)cc2)c(-c2ccc(F)cc2)s1` [Example 3, 3-(4-(Aminosulfonyl)phenyl)-2-(4-fluorophenyl)-5-(2-propyl)thiophene], the inhibition at 0.01 µM at cyclooxygenase-1 (COX-1) [1] (setting [5]) is 19%; on cyclooxygenase-2 (COX-2) [4] it was 42%; at cyclooxygenase-2 (COX-2) [2] (setting [6]), 33%. For the same compound, the inhibition at 0.1 µM at cyclooxygenase-1 (COX-1) [1] (setting [7]) was found to be 12%; on cyclooxygenase-2 (COX-2) [4] (100 nM), 100%; at cyclooxygenase-2 (COX-2) [2] (setting [8]) it was 76%.
Regarding `CS(=O)(=O)c1ccc(C2=C(c3ccc(Cl)cc3Br)C(=O)OC2)cc1` [Example 26, 3-(2-Bromo-4-Chlorophenyl)-4-(4-(methylsulfonyl)phenyl)-2-(5H)-furanone], at cyclooxygenase-2 (COX-2) [4], the inhibition at 0.08 µM worked out at 27%. The inhibition at 0.16 µM on cyclooxygenase-2 (COX-2) [4] (160 nM) is 39%.
As to `Cc1ccc(C2=C(c3ccc(S(C)(=O)=O)cc3)COC2=O)cc1Br` [Example 43, 3-(3-Bromo-4-methylphenyl)-4-(4-(methylsulfonyl)phenyl)-2-(5H)-furanone], at cyclooxygenase-2 (COX-2) [4], the inhibition at 0.01 µM is 78% and the inhibition at 0.04 µM was 101%.
Turning to `CS(=O)(=O)c1ccc(C2=C(c3ccc4ccccc4c3)C(=O)OC2)cc1` [Example 49, 3-(2-Naphthyl)-4-(4-(methylsulfonyl)phenyl)-2-(5H)-furanone], at cyclooxygenase-2 (COX-2) [4], the inhibition at 0.01 µM turned out to be 53%, the inhibition at 0.04 µM came to 91% and the inhibition at 0.08 µM was 99%.
For the compound `O=C(NS(=O)(=O)c1ccc(-c2ccsc2-c2ccc(F)cc2)cc1)C(F)(F)F` [Example 14, 3-(4-(Trifluoroacetylaminosulfonyl)phenyl)-2-(4-fluorophenyl)thiophene], the results for the inhibition at 0.01 µM on cyclooxygenase-1 (COX-1) [1] (setting [5]), on cyclooxygenase-2 (COX-2) [4] and at cyclooxygenase-2 (COX-2) [2] (setting [6]) were 29%, 73% and 45%, respectively. Besides, the inhibition at 0.1 µM on cyclooxygenase-1 (COX-1) [1] (setting [7]) was 0%; on cyclooxygenase-2 (COX-2) [4] (100 nM) it was 89%; at cyclooxygenase-2 (COX-2) [2] (setting [8]), 63%. Further, the inhibition at 1 µM at cyclooxygenase-1 (COX-1) [1] (1000 nM, read-out: Microsomes COX-1 % inhib.) is 0%; on cyclooxygenase-2 (COX-2) [4] (1000 nM), 101%; at cyclooxygenase-2 (COX-2) [2] (1000 nM, read-out: Microsomes COX-2 % inhib.), 69%.
`CS(=O)(=O)c1ccc(C2=C(c3ccc(Cl)cc3F)C(=O)OC2)cc1` [Example 27, 3-(4-Chloro-2-fluorophenyl)-4-(4-(methylsulfonyl)phenyl)-2-(5H)-furanone]: on cyclooxygenase-2 (COX-2) [4] (20 nM), the inhibition at 0.02 µM turned out to be 38%. In addition, the inhibition at 0.16 µM on cyclooxygenase-2 (COX-2) [4] (160 nM) stood at 97%.
For `COc1ccc(C2=C(c3ccc(S(N)(=O)=O)cc3)COC2=O)cc1Cl` [Example 53, 3-(3-Chloro-4-methoxyphenyl)-4-(4-(aminosulfonyl)phenyl)-2-(2H)-furanone], on cyclooxygenase-2 (COX-2) [4], the inhibition at 0.01 µM stood at 54% and the inhibition at 0.04 µM amounted to 96%. The inhibition at 0.16 µM on cyclooxygenase-2 (COX-2) [4] (160 nM) was 102%.
For `CS(=O)(=O)c1ccc(C2=C(c3ccc(Br)c(F)c3)C(=O)OC2)cc1` [Example 47, 3-(4-Bromo-3-fluorophenyl)-4-(4-(methylsulfonyl)phenyl)-2-(5H)-furanone], on cyclooxygenase-2 (COX-2) [4], the inhibition at 0.01 µM amounted to 61% and the inhibition at 0.04 µM amounted to 74%. The inhibition at 0.16 µM on cyclooxygenase-2 (COX-2) [4] (160 nM) was determined as 101%.
`NS(=O)(=O)c1ccc(C2=C(c3ccc(F)cc3)C(=O)OC2)cc1` [Example 10, 3-(4-Fluorophenyl)-4-(4-(aminosulfonyl)phenyl)-2-(2H)-furanone]: the inhibition at 0.1 µM on cyclooxygenase-1 (COX-1) [1] (setting [7]) came to 12%; on cyclooxygenase-2 (COX-2) [4] (100 nM), 95%; at cyclooxygenase-2 (COX-2) [2] (setting [8]), 71%.
As to `CS(=O)(=O)c1ccc(C2=C(c3ccccc3)C(=O)OC2)cc1` [Example 23, 3-(Phenyl)-4-(4-(methylsulfonyl)phenyl)-2-(5H)-furanone], on cyclooxygenase-2 (COX-2) [4], the inhibition at 0.02 µM was found to be 50% and the inhibition at 0.16 µM is 88%.
